According to patent publication US11246907B2, “Immunosuppressive agents and their use in therapy” (Norwegian University of Science and Technology, priority 2013, dated 2022):

Assays:
monocytes = assay: Annexin staining / flow cytometry of monocytes (apoptosis); assay type: cell-based, human; settings: 4 hours, monocytes
Description: Annexin staining was used to determine cell viability and cells were counted using flow cytometry.
Peripheral blood […] were isolated from A+ buffy coats (Blood Bank, St. Olav's University Hospital) by density gradient centrifugation (Lymphoprep; Axis-Shield PoC, Oslo, Norway). The adherent cell fraction after 90 minute incubation, termed monocytes, were washed twice with HANKS and maintained in RPMI 1640 supplemented with 2 mM glutamine, […] gentamicin and 25% heat-inactivated HS over-night. Cells were cultured at 37° C. in a humidified atmosphere of 5% CO2 over-night. […] An R11 peptide and no peptide treatment were used as controls. After 4 hours, the cells were washed once in PBS, and re-suspended in buffer as recommended by the manufacturer of the Annexin V-Pacific Blue kit (Invitrogen). Cells were identified monocytes according to size (FSC) and granularity (SSC).

[1] = tested on: peripheral blood monocytes; assay: Multiplex (27-plex) cytokine secretion of TLR-ligand stimulated peripheral blood monocytes; assay type: cell-based, human; settings: LPS or polyIC, 4 h; ATX-101 4 μM, SB203580 10 μM, LY294002 5 and 10 μM, SC66 1 μg/ml
Description: Measured cytokine levels were normalized to cytokine levels from monocytes stimulated with TLR ligand alone. A two fold or higher increase in cytokine level after TLR stimulation was defined as cytokine induction. […] Isolated monocytes were stimulated with 10 ng/ml LPS and 40 μg/ml polyIC alone and in combination with 4 μM ATX-101 for 4 h. […] DRAQS was used for nuclear staining. Bar, 5 μm.
Data is from one representative donor out of three; and (B-E) show multiplex analysis of cytokine levels produced by peripheral blood monocytes stimulated with 10 ng/ml LPS (B and D, same donor) and 40 μg/ml polyIC (C and E, same donor) after 4 h. (B and C) Stimulated-monocytes were treated with 4 μM ATX-101, 10 μM SB203580 (p38 MAPK inhibitor), and combination of ATX-101 and SB203580. (D and E) Stimulated-monocytes were treated with 4 μM ATX-101, 5 and 10 μM LY294002 (PI3K class I inhibitor), and combination of ATX-101 and LY294002. Measured cytokine levels were normalized to cytokine levels from monocytes stimulated with TLR ligand alone. A two fold or higher increase in cytokine level after TLR stimulation was defined as cytokine induction. # Value is too low to be visible in the column diagram; ? cytokine measurement was out of range. Data is from representative experiments out of two.
(§1) Measured cytokine levels were normalized to cytokine levels from monocytes stimulated with TLR ligand alone. A two fold or higher increase in cytokine level after TLR stimulation was defined as cytokine induction. ? Cytokine measurement was out of range. Data is from one experiment out of two.
Measured cytokine levels were normalized to cytokine levels from monocytes stimulated with TLR ligand alone. Data is from one donor. We obtained similar results for IL-6 secretion in two other donors.
as §1, with “# Value is too low to be visible in the column diagram; 0” for “?”
Peripheral blood mononuclear cells were isolated from A+ buffy coats (Blood Bank, St. Olav's University Hospital, Trondheim, Norway) by density gradient centrifugation (Lymphoprep; Axis-Shield PoC, Oslo, Norway). Mononucleated cells were seeded at 4 million cells/ml in serum-free RPMI 1640 supplemented with glutamine and gentamicin. After 60-90 min the adherent cell population was washed before cultured in medium with 10% heat-inactivated human serum (Blood Bank, St. Olav's University Hospital). ATX-101 (4 μM [Innovagen, Lund, Sweden]), ATX-A (4 μM, [Innovagen]) (ATX-A is represented in SEQ ID NO: 1206 and contains the motif RALVK (SEQ ID NO: 1207), which is not capable of interacting with PCNA), p38 inhibitor (SB203580, 10 μM, [Sigma-Aldrich]), PI3K inhibitor (LY294002, 5 and 10 μM, [Sigma-Aldrich]), and Akt inhibitor (Akt inhibitor XVIII SC66, 1 μg/ml, [Sigma-Aldrich]) were added in serum-free medium and incubated for 5 min before LPS (10 ng/ml, [Sigma-Aldrich]), polylC (40 μg/ml, [GE Healthcare, Little Chalfont, UK]), PAM3Cys (10 ng/ml, [Invivogen, San Diego, Calif., USA]) or R848 (10 μg/ml, [Invivogen]) were added in serum-containing medium. The cells were incubated for 4 h before the supernatants were harvested and frozen prior to further cytokine analysis by the 27-plex assay (Bio-Plex ProTM Human cytokine 27-plex assay).

Structure (SMILES)	Percentage of annexin positive cells (monocytes; 5μM peptide treatment)	Percentage of annexin positive cells (monocytes; 10 μM peptide treatment)	cytokine secretion from stimulated monocytes, single agent [1]
CC[C@H](C)[C@H](NC(=O)[C@H](CCCCN)NC(=O)[C@H](CCCNC(=N)N)NC(=O)[C@H](CCCCN)NC(=O)[C@H](CCCCN)NC(=O)[C@H](CCCCN)NC(=O)[C@H](Cc1c[nH]c2ccccc12)NC(=O)[C@@H]1CCCN1C(=O)[C@@H](NC(=O)[C@H](CC(C)C)NC(=O)[C@H](Cc1c[nH]c2ccccc12)NC(=O)[C@H](CCCNC(=N)N)NC(=O)[C@H](CC(=O)O)NC(=O)[C@@H](N)CCSC)C(C)C)C(=O)N[C@@H](CCCNC(=N)N)C(=O)N[C@@H](CCCNC(=N)N)C(=O)N[C@@H](CCCNC(=N)N)C(=O)N[C@@H](CCCNC(=N)N)C(=O)N[C@@H](CCCNC(=N)N)C(=O)N[C@@H](CCCNC(=N)N)C(=O)N[C@@H](CCCNC(=N)N)C(=O)N[C@@H](CCCNC(=N)N)C(=O)N[C@@H](CCCNC(=N)N)C(=O)N[C@@H](CCCNC(=N)N)C(=O)N[C@@H](CCCNC(=N)N)C(=O)O [ATX-P]	65%	81%	–
N=C(N)NCCC[C@H](NC(=O)[C@H](CCCNC(=N)N)NC(=O)[C@H](CCCNC(=N)N)NC(=O)[C@H](CCCNC(=N)N)NC(=O)[C@H](CCCNC(=N)N)NC(=O)[C@H](CCCNC(=N)N)NC(=O)[C@H](CCCNC(=N)N)NC(=O)[C@H](CCCNC(=N)N)NC(=O)[C@H](CCCNC(=N)N)NC(=O)[C@H](CCCNC(=N)N)NC(=O)[C@@H](N)CCCNC(=N)N)C(=O)O [R11, reference compound]	55%	56%	–
C[S+]([O-])c1ccc(-c2nc(-c3ccncc3)c(-c3ccc(F)cc3)[nH]2)cc1 (stereo not drawn) [SB203580, reference compound]	–	–	reduced cytokine secretion
O=C1/C(=C/c2ccncc2)CCC/C1=C\c1ccncc1 [SC66, reference compound]	–	–	reduces cytokine secretion of monocytes to or below the basal levels
